Reference: the supplement of paper PMC8617591

Key:
[1] = system: Mycobacterium tuberculosis Erdman (autoluminescent); assay: FIC90 (Loewe) at 90% inhibition (log2); higher = more antagonistic
Experimental: (§1)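 DiaMOND equipotent two-drug combination dose responses against autoluminescent M. tuberculosis Erdman in 8 in vitro models. Read-out is OD600, or luminescence for the intracellular and dormancy models, normalised to untreated wells. Hill-fit Einf, AUC25 and GRinf are potency metrics; FIC50 and FIC90 are Loewe-additivity fractional inhibitory concentrations, given as log2 (negative = synergy). Replicates are averaged.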

[2] = system: Mycobacterium tuberculosis Erdman (autoluminescent); assay: FIC50 (Loewe) at 50% inhibition (log2); higher = more antagonistic
Experimental: as §1

[3] = system: Mycobacterium tuberculosis Erdman (autoluminescent); assay: Einf, fitted maximum growth inhibition of combination (fraction); higher = stronger maximal inhibition
Experimental: as §1

[4] = system: Mycobacterium tuberculosis Erdman (autoluminescent); assay: AUC25, normalised area under dose response up to IC25 (fraction (0-1)); higher = more potent at low dose
Experimental: as §1

[5] = system: Mycobacterium tuberculosis Erdman (autoluminescent); assay: GRinf, maximum normalised growth rate inhibition (unitless (-1 to 1)); higher = less effect (negative = killing)
Experimental: as §1

CC(=O)NC[C@H]1CN(c2ccc(N3CCOCC3)c(F)c2)C(=O)O1 [linezolid] + COc1c(N2C[C@@H]3CCCN[C@@H]3C2)c(F)cc2c(=O)c(C(=O)O)cn(C3CC3)c12 [moxifloxacin]
Details | AUC25, [4] | Einf, [3] | FIC50, [2] | FIC90, [1] | GRinf, [5]
in vitro model: acidic pH 5.7, time point: constant (~7 days, model-specific) | 0.144 | 0.799 | -0.0102 | – | -0.581
in vitro model: acidic pH 5.7, time point: terminal (~4-5 doublings, model-specific) | 0.102 | 0.963 | 0.872 | 0.52 | -0.271
in vitro model: intracellular J774, time point: constant = terminal | – | 0.909 | – | 0.463 | -0.14

Details | AUC25, [4] | Einf, [3] | FIC50, [2] | FIC90, [1] | GRinf, [5]
in vitro model: butyrate, time point: constant (~7 days, model-specific) | 0.0878 | 0.885 | 0.397 | 1.22 | 0.0908
in vitro model: butyrate, time point: terminal (~4-5 doublings, model-specific) | 0.0618 | 0.939 | 0.323 | 0.392 | 0.0886
in vitro model: cholesterol 0.05 mM, time point: constant (~7 days, model-specific) | 0.124 | 0.679 | -0.444 | – | -0.0664
in vitro model: cholesterol 0.05 mM, time point: terminal (~4-5 doublings, model-specific) | 0.137 | 0.938 | 0.0528 | -0.309 | -0.215
in vitro model: cholesterol-high 0.2 mM, time point: constant (~7 days, model-specific) | 0.123 | 0.95 | -0.129 | 0.814 | -0.546
in vitro model: cholesterol-high 0.2 mM, time point: terminal (~4-5 doublings, model-specific) | 0.125 | 1 | -0.211 | 0.433 | -0.844
in vitro model: dormancy (butyrate + nitrate, low O2), time point: constant (~7 days, model-specific) | 0.0537 | 0.914 | 0.869 | 0.521 | 0.139
in vitro model: dormancy (butyrate + nitrate, low O2), time point: terminal (~4-5 doublings, model-specific) | 0.0589 | 0.964 | 0.671 | 0.922 | 0.061
in vitro model: standard 7H9 glycerol, time point: constant = terminal | 0.0831 | 0.955 | 0.52 | 0.972 | -0.197
in vitro model: valerate, time point: constant (~7 days, model-specific) | 0.11 | 0.856 | 0.339 | – | 0.0191
in vitro model: valerate, time point: terminal (~4-5 doublings, model-specific) | 0.0688 | 0.932 | 0.36 | 0.679 | 0.0477

CC(=O)NC[C@H]1CN(c2ccc(N3CCOCC3)c(F)c2)C(=O)O1 [linezolid] + NC(=O)c1cnccn1 [pyrazinamide]
Details | AUC25, [4] | Einf, [3] | FIC50, [2] | FIC90, [1] | GRinf, [5]
in vitro model: acidic pH 5.7, time point: constant (~7 days, model-specific) | 0.0815 | 0.856 | 0.463 | – | -0.176
in vitro model: acidic pH 5.7, time point: terminal (~4-5 doublings, model-specific) | 0.0982 | 0.985 | 0.393 | -1.67 | -0.358
in vitro model: intracellular J774, time point: constant = terminal | – | 0.948 | – | 0.0529 | -0.235

Details | AUC25, [4] | Einf, [3] | FIC50, [2] | FIC90, [1] | GRinf, [5]
in vitro model: butyrate, time point: constant (~7 days, model-specific) | 0.119 | 0.897 | -0.211 | 1.73 | 0.0498
in vitro model: butyrate, time point: terminal (~4-5 doublings, model-specific) | 0.0989 | 0.95 | -0.152 | 0.565 | 0.0146
in vitro model: cholesterol 0.05 mM, time point: constant (~7 days, model-specific) | 0.142 | 0.724 | – | – | -0.126
in vitro model: cholesterol 0.05 mM, time point: terminal (~4-5 doublings, model-specific) | 0.141 | 0.95 | 0.09 | – | -0.256
in vitro model: cholesterol-high 0.2 mM, time point: constant (~7 days, model-specific) | 0.114 | 0.957 | 0.0387 | – | -0.407
in vitro model: cholesterol-high 0.2 mM, time point: terminal (~4-5 doublings, model-specific) | 0.115 | 0.999 | 0.0483 | 0.383 | -0.83
in vitro model: dormancy (butyrate + nitrate, low O2), time point: constant (~7 days, model-specific) | 0.0601 | 0.878 | 0.507 | 0.733 | 0.236
in vitro model: dormancy (butyrate + nitrate, low O2), time point: terminal (~4-5 doublings, model-specific) | 0.0422 | 0.823 | 0.0853 | 1.09 | 0.182
in vitro model: standard 7H9 glycerol, time point: constant = terminal | 0.0807 | 0.939 | 0.336 | – | -0.0617
in vitro model: valerate, time point: constant (~7 days, model-specific) | 0.0877 | 0.798 | -0.432 | – | 0.131
in vitro model: valerate, time point: terminal (~4-5 doublings, model-specific) | 0.0556 | 0.892 | -0.271 | 1.25 | 0.137

CC(=O)NC[C@H]1CN(c2ccc(N3CCOCC3)c(F)c2)C(=O)O1 [linezolid] + O=[N+]([O-])c1cn2c(n1)OC[C@@H](OCc1ccc(OC(F)(F)F)cc1)C2 [pretomanid]
Details | AUC25, [4] | Einf, [3] | FIC50, [2] | FIC90, [1] | GRinf, [5]
in vitro model: acidic pH 5.7, time point: constant (~7 days, model-specific) | 0.116 | 0.89 | 0.583 | – | -0.559
in vitro model: acidic pH 5.7, time point: terminal (~4-5 doublings, model-specific) | 0.0893 | 0.984 | 0.324 | 0.246 | -0.355
in vitro model: intracellular J774, time point: constant = terminal | – | 0.993 | – | 1.06 | -0.54

Details | AUC25, [4] | Einf, [3] | FIC50, [2] | FIC90, [1] | GRinf, [5]
in vitro model: butyrate, time point: constant (~7 days, model-specific) | 0.0973 | 0.907 | 0.595 | 1.47 | 0.0334
in vitro model: butyrate, time point: terminal (~4-5 doublings, model-specific) | 0.0643 | 0.947 | 0.4 | 0.493 | 0.0161
in vitro model: cholesterol 0.05 mM, time point: constant (~7 days, model-specific) | 0.13 | 0.708 | -0.367 | – | -0.103
in vitro model: cholesterol 0.05 mM, time point: terminal (~4-5 doublings, model-specific) | 0.142 | 0.942 | -0.293 | 0.00527 | -0.182
in vitro model: cholesterol-high 0.2 mM, time point: constant (~7 days, model-specific) | 0.0977 | 0.869 | -0.451 | -0.477 | -0.114
in vitro model: cholesterol-high 0.2 mM, time point: terminal (~4-5 doublings, model-specific) | 0.111 | 0.992 | -0.228 | 0.311 | -0.548
in vitro model: dormancy (butyrate + nitrate, low O2), time point: constant (~7 days, model-specific) | 0.0359 | 0.925 | 0.74 | 0.509 | 0.0858
in vitro model: dormancy (butyrate + nitrate, low O2), time point: terminal (~4-5 doublings, model-specific) | 0.0385 | 0.991 | 0.255 | 0.232 | -0.248
in vitro model: standard 7H9 glycerol, time point: constant = terminal | 0.0819 | 0.971 | 0.34 | 0.309 | -0.171
in vitro model: valerate, time point: constant (~7 days, model-specific) | 0.102 | 0.802 | 1.02 | – | 0.0728
in vitro model: valerate, time point: terminal (~4-5 doublings, model-specific) | 0.123 | 0.951 | -0.689 | 0.943 | 0.0215

COc1c(N2C[C@@H]3CCCN[C@@H]3C2)c(F)cc2c(=O)c(C(=O)O)cn(C3CC3)c12 [moxifloxacin] + CO[C@H]1/C=C/O[C@@]2(C)Oc3c(C)c(O)c4c(O)c(c(/C=N/N5CCN(C6CCCC6)CC5)c(O)c4c3C2=O)NC(=O)/C(C)=C\C=C\[C@H](C)[C@H](O)[C@@H](C)[C@@H](O)[C@@H](C)[C@H](OC(C)=O)[C@@H]1C [rifapentine]
Details | AUC25, [4] | Einf, [3] | FIC50, [2] | FIC90, [1] | GRinf, [5]
in vitro model: acidic pH 5.7, time point: constant (~7 days, model-specific) | 0.0469 | 0.776 | 0.389 | – | 0.0776
in vitro model: acidic pH 5.7, time point: terminal (~4-5 doublings, model-specific) | 0.0544 | 0.962 | 0.463 | 0.271 | -0.0233
in vitro model: intracellular J774, time point: constant = terminal | – | 0.973 | – | 0.684 | -0.226

Details | AUC25, [4] | Einf, [3] | FIC50, [2] | FIC90, [1] | GRinf, [5]
in vitro model: butyrate, time point: constant (~7 days, model-specific) | 0.0933 | 0.893 | 0.555 | 0.73 | 0.0724
in vitro model: butyrate, time point: terminal (~4-5 doublings, model-specific) | 0.0734 | 0.956 | 0.515 | 0.586 | 0.0272
in vitro model: cholesterol 0.05 mM, time point: constant (~7 days, model-specific) | 0.131 | 0.594 | 0.777 | – | -0.074
in vitro model: cholesterol 0.05 mM, time point: terminal (~4-5 doublings, model-specific) | 0.0876 | 0.887 | 0.482 | 1.32 | -0.0906
in vitro model: cholesterol-high 0.2 mM, time point: constant (~7 days, model-specific) | 0.082 | 0.903 | 0.798 | -0.159 | -0.242
in vitro model: cholesterol-high 0.2 mM, time point: terminal (~4-5 doublings, model-specific) | 0.0641 | 0.996 | 0.807 | 0.727 | -0.866
in vitro model: dormancy (butyrate + nitrate, low O2), time point: constant (~7 days, model-specific) | 0.0771 | 0.915 | 0.269 | 0.0994 | 0.17
in vitro model: dormancy (butyrate + nitrate, low O2), time point: terminal (~4-5 doublings, model-specific) | 0.0532 | 0.985 | 0.72 | 0.719 | -0.231
in vitro model: standard 7H9 glycerol, time point: constant = terminal | 0.0584 | 0.893 | 0.509 | 0.225 | 0.0707
in vitro model: valerate, time point: constant (~7 days, model-specific) | 0.0746 | 0.844 | 0.4 | – | 0.0459
in vitro model: valerate, time point: terminal (~4-5 doublings, model-specific) | 0.0547 | 0.933 | 0.541 | 1.69 | 0.0582
